These results are taken from ChEMBL document CHEMBL1151896, “3D QSAR of novel estrogen-RGD peptide conjugates: getting insight into structural dependence of anti-osteoporosis activity and side effect of estrogen in ERT” (Bioorg Med Chem, 2009).

Structures are written as SMILES. Numbered stars: 1 amine (or outer) side, 2 acyl side, 3 side chain; on linkers, the order of the positions; unused ones are H or OH. Bridge positions count the residues as written; N and C are the ends. Peptide text beside a SMILES is read from it. I, II: the chains in the order shown. * marks the point of attachment. Estradiol(3-OCH2CO,17-OSuc) = C[C@]12CC[C@@H]3c4ccc(OCC(=O)[*:1])cc4CC[C@H]3[C@@H]1CC[C@@H]2OC(=O)CCC(=O)[*:2]; X1 = C[C@]12CC[C@@H]3c4ccc(OCC(=O)*)cc4CC[C@H]3[C@@H]1CCC2=O

Data set [1] has as its system Mus musculus. Briefly: Toxicity in ovariectomized ICR mouse assessed as tail bleeding time at 110.3 nmol/kg, po for 90 mins. The following applies: in vivo, 1.5 h. The data set is classed as organism-based.
Data set [2] deals with Mus musculus. Briefly: Toxicity in ovariectomized ICR mouse assessed as effect on spleen weight at 110.3 nmol/kg, po after 4 weeks. The data set is classed as organism-based. The conditions noted are these: in vivo, 672 h.
For data set [3], the system named is Mus musculus. Put plainly: Antiosteoporosis activity against ovariectomized ICR mouse assessed as femur phosphorous content at 110.3 nmol/kg, po after 30 mins. The data set is classed as functional.
The test system of data set [4] is Mus musculus. Put plainly: Antiosteoporosis activity against ovariectomized ICR mouse assessed as serum phosphorous level at 110.3 nmol/kg, po after 30 mins. The data set is classed as functional.
The test system of data set [5] is Mus musculus. Briefly: Antiosteoporosis activity against ovariectomized ICR mouse assessed as mineral content at 110.3 nmol/kg, po after 30 mins. The data set is classed as functional.
In data set [6] the test system is Mus musculus. Briefly: Toxicity in ovariectomized ICR mouse assessed as tail bleeding time at 110.3 nmol/kg, po for 30 mins. The data set is classed as organism-based. The conditions noted are these: in vivo, 0.5 h.
Data set [7] relates to Mus musculus. Briefly: Toxicity in ovariectomized ICR mouse assessed as effect on kidney weight at 110.3 nmol/kg, po after 4 weeks. The data set is classed as organism-based. The conditions noted are these: in vivo, 672 h.
In data set [8] the test system is Mus musculus. Briefly: Antiosteoporosis activity against ovariectomized ICR mouse assessed as dry femur weight at 110.3 nmol/kg, po after 30 mins. The data set is classed as functional.
For data set [9], the system named is Mus musculus. Briefly: Antiosteoporosis activity against ovariectomized ICR mouse assessed as femur ash weight at 110.3 nmol/kg, po after 30 mins. The data set is classed as functional.
Data set [10] concerns Mus musculus. Put plainly: Antiosteoporosis activity against ovariectomized ICR mouse assessed as serum ALP activity at 110.3 nmol/kg, po after 30 mins. The data set is classed as functional.
Data set [11] relates to Mus musculus. Briefly: Antiosteoporosis activity against ovariectomized ICR mouse assessed as femur length at 110.3 nmol/kg, po after 30 mins. The data set is classed as functional.
In data set [12] the test system is Mus musculus. Put plainly: Toxicity in ovariectomized ICR mouse assessed as effect on lung weight at 110.3 nmol/kg, po after 4 weeks. The data set is classed as organism-based. The following applies: in vivo, 672 h.
Data set [13] relates to Mus musculus. Put plainly: Toxicity in ovariectomized ICR mouse assessed as change in uterine weight at 110.3 nmol/kg, po after 4 weeks. The data set is classed as organism-based. The conditions noted are these: in vivo, 672 h.
In data set [14] the test system is Mus musculus. Put plainly: Toxicity in ovariectomized ICR mouse assessed as effect on liver weight at 110.3 nmol/kg, po after 4 weeks. The data set is classed as organism-based. The following applies: in vivo, 672 h.
Data set [15] concerns Mus musculus. Briefly: Antiosteoporosis activity against ovariectomized ICR mouse assessed as femur calcium content at 110.3 nmol/kg, po after 30 mins. The data set is classed as functional.
Data set [16] has as its system Mus musculus. Briefly: Toxicity in ovariectomized ICR mouse assessed as effect on body weight at 110.3 nmol/kg, po after 4 weeks. The data set is classed as organism-based. The conditions noted are these: in vivo, 672 h.
Data set [17] concerns Mus musculus. Briefly: Antiosteoporosis activity against ovariectomized ICR mouse assessed as serum calcium level at 110.3 nmol/kg, po after 30 mins. The data set is classed as functional.

Turning to `C[C@]12CC[C@@H]3c4ccc(OCC(=O)N[C@@H](CCCNC(=N)N)C(=O)NCC(=O)N[C@@H](CC(=O)O)C(=O)N[C@@H](Cc5ccccc5)C(=O)O)cc4CC[C@H]3[C@@H]1CC[C@@H]2OC(=O)CCC(=O)N[C@@H](CCCNC(=N)N)C(=O)NCC(=O)N[C@@H](CC(=O)O)C(=O)N[C@@H](Cc1ccccc1)C(=O)O` (I: RGDF-OH / II: RGDF-OH; linker I:N-II:N via Estradiol(3-OCH2CO,17-OSuc)), the Activity in the data set with Mus musculus [1] is on record as 524 s; in the data set with Mus musculus [2], “Non-toxic”; in the data set on Mus musculus [3] it was 21.21%; with Mus musculus [4], 3.09 mM; in the data set on Mus musculus [5], 0.61%; in the data set on Mus musculus [6], 522 s. For the same compound, the Activity entry is “Non-toxic” in the data set with Mus musculus [7]; 55.46 mg in the data set on Mus musculus [8]; 35.22 mg in the data set with Mus musculus [9]; 15.8 U/L in the data set with Mus musculus [10]; 1.62 cm in the data set with Mus musculus [11]; “Non-toxic” with Mus musculus [12]. The Activity in the data set on Mus musculus [13] is given as 0.05 g; in the data set with Mus musculus [14], “Non-toxic”; in the data set with Mus musculus [15] it was 61.17%; in the data set on Mus musculus [16], “Non-toxic”; in the data set with Mus musculus [17] it was 3.19 mM.
In the case of `C[C@]12CC[C@@H]3c4ccc(OCC(=O)N[C@@H](CCCNC(=N)N)C(=O)NCC(=O)N[C@@H](CC(=O)O)C(=O)N[C@@H](Cc5ccccc5)C(=O)N[C@@H](CCCNC(=N)N)C(=O)NCC(=O)N[C@@H](CC(=O)O)C(=O)N[C@@H](Cc5ccccc5)C(=O)O)cc4CC[C@H]3[C@@H]1CCC2=O` (X1-RGDFRGDF-OH), the Activity in the data set with Mus musculus [1] is given as 574 s; in the data set on Mus musculus [2], “Non-toxic”; with Mus musculus [3] it was 20.33%; in the data set on Mus musculus [4] it was 3.01 mM; in the data set with Mus musculus [5] it was 0.61%; in the data set with Mus musculus [6], 579 s. Besides, the Activity result was “Non-toxic” in the data set with Mus musculus [7]; 55.26 mg in the data set on Mus musculus [8]; 35.24 mg in the data set with Mus musculus [9]; 15.06 U/L in the data set with Mus musculus [10]; 1.64 cm in the data set on Mus musculus [11]; “Non-toxic” with Mus musculus [12]. Further, the Activity in the data set on Mus musculus [13] was 0.051 g; in the data set with Mus musculus [14], “Non-toxic”; in the data set on Mus musculus [15], 59.92%; in the data set on Mus musculus [16], “Non-toxic”; in the data set on Mus musculus [17] it was 3.15 mM.
With `CC(C)[C@H](NC(=O)[C@H](CC(=O)O)NC(=O)CNC(=O)[C@H](CCCNC(=N)N)NC(=O)[C@@H](NC(=O)[C@H](CC(=O)O)NC(=O)CNC(=O)[C@H](CCCNC(=N)N)NC(=O)COc1ccc2c(c1)CC[C@@H]1[C@@H]2CC[C@]2(C)C(=O)CC[C@@H]12)C(C)C)C(=O)O` (X1-RGDVRGDV-OH), the Activity in the data set on Mus musculus [1] is given as 514 s; in the data set with Mus musculus [2], “Non-toxic”; in the data set on Mus musculus [3], 21.84%; in the data set with Mus musculus [4], 3.22 mM; in the data set with Mus musculus [5], 0.62%; in the data set with Mus musculus [6], 582 s. The Activity result is “Non-toxic” in the data set on Mus musculus [7]; 55.39 mg in the data set on Mus musculus [8]; 35.29 mg in the data set on Mus musculus [9]; 13.27 U/L in the data set on Mus musculus [10]; 1.66 cm with Mus musculus [11]; “Non-toxic” with Mus musculus [12]. Moreover, the Activity in the data set with Mus musculus [13] is on record as 0.059 g; in the data set with Mus musculus [14], “Non-toxic”; with Mus musculus [15] it was 60.5%; in the data set on Mus musculus [16], “Non-toxic”; with Mus musculus [17], 3 mM.
`C[C@]12CC[C@@H]3c4ccc(OCC(=O)N[C@@H](CCCNC(=N)N)C(=O)NCC(=O)N[C@@H](CC(=O)O)C(=O)N[C@@H](CO)C(=O)O)cc4CC[C@H]3[C@@H]1CC[C@@H]2OC(=O)CCC(=O)N[C@@H](CCCNC(=N)N)C(=O)NCC(=O)N[C@@H](CC(=O)O)C(=O)N[C@@H](CO)C(=O)O` (I: RGDS-OH / II: RGDS-OH; linker I:N-II:N via Estradiol(3-OCH2CO,17-OSuc)): the Activity is on record as 570 s in the data set with Mus musculus [1]; “Non-toxic” in the data set on Mus musculus [2]; 20.35% in the data set with Mus musculus [3]; 2.99 mM with Mus musculus [4]; 0.62% in the data set with Mus musculus [5]; 580 s with Mus musculus [6]. The Activity entry with Mus musculus [7] was “Non-toxic”; in the data set on Mus musculus [8], 55.22 mg; with Mus musculus [9], 35.6 mg; with Mus musculus [10] it was 19.61 U/L; with Mus musculus [11], 1.64 cm; in the data set with Mus musculus [12], “Non-toxic”. For the same compound, the Activity is reported as 0.05 g in the data set on Mus musculus [13]; “Non-toxic” in the data set on Mus musculus [14]; 61.05% in the data set with Mus musculus [15]; “Non-toxic” with Mus musculus [16]; 3.22 mM with Mus musculus [17].
In the case of `CC(C)[C@H](NC(=O)[C@H](CC(=O)O)NC(=O)CNC(=O)[C@H](CCCNC(=N)N)NC(=O)CCC(=O)O[C@H]1CC[C@H]2[C@@H]3CCc4cc(OCC(=O)N[C@@H](CCCNC(=N)N)C(=O)NCC(=O)N[C@@H](CC(=O)O)C(=O)N[C@H](C(=O)O)C(C)C)ccc4[C@H]3CC[C@]12C)C(=O)O` (I: RGDV-OH / II: RGDV-OH; linker I:N-II:N via Estradiol(3-OCH2CO,17-OSuc)), the Activity in the data set with Mus musculus [1] is 532 s; in the data set on Mus musculus [2], “Non-toxic”; in the data set on Mus musculus [3], 20.94%; in the data set on Mus musculus [4], 2.84 mM; in the data set on Mus musculus [5] it was 0.62%; in the data set on Mus musculus [6], 591 s. The Activity entry with Mus musculus [7] was “Non-toxic”; with Mus musculus [8], 56.46 mg; in the data set with Mus musculus [9], 35.75 mg; in the data set on Mus musculus [10], 19.94 U/L; in the data set on Mus musculus [11] it was 1.66 cm; in the data set on Mus musculus [12] it was “Non-toxic”. Besides, the Activity in the data set with Mus musculus [13] was 0.059 g; in the data set with Mus musculus [14], “Non-toxic”; in the data set on Mus musculus [15] it was 61.56%; with Mus musculus [16], “Non-toxic”; with Mus musculus [17], 3.17 mM.
